The record followed here is paper PMC7355430, “Imunofan—RDKVYR Peptide—Stimulates Skin Cell Proliferation and Promotes Tissue Repair” (Molecules, 2020).

Each structure is given as a SMILES string. Values joined by “and” are separate entries in the source; they are usually repeats but may differ in a detail not shown here. Equal values may be shown once. Peptide text beside a SMILES is read from it.

One data set concerns basophils. The experiment in a line: Basophil activation test (BAT). The data set is classed as cell-based, human. Particulars: 0.1 µg/mL, whole blood of healthy volunteers, Flow CAST highsens; cut-off 5%; 7 independent experiments. The protocol: The commercially available test Flow CAST® highsens (Bühlmann Laboratories, Schönenbuch, Switzerland) was used to perform BAT test on blood samples collected from healthy volunteers, who were not suffering from allergy, within 24 h of collection, according to the manufacturer’s protocol. Then, 100 µL of blood was incubated and IM peptide was added to the wells at a final concentration of 0.1 µg/mL. The cells were then stained with fluorochrome-stained monoclonal antibodies (anti-CD63, -CD203c, -CCR3) and incubated for 15 min at 37 °C. Then, erythrocyte lysis was performed, the cells were washed and analyzed by flow cytometry (BD FACSCanto II, San Jose, CA, USA). Each sample was accompanied by its own negative and positive control (anti-FcεRI mAb and fMLP).

For a further data set, the system named is BALB/c mice. The experiment in a line: Ear pinna injury, ear punch closure. The data set is classed as in vivo, mouse. The protocol: Experiments were performed on 8–12 week-old female BALB/c (24 mice in total) and C57BL/6 mice (36 mice in total). All mice originated from the Centre for Experimental Medicine of the Medical University of Białystok, Poland, and were kept in the animal facility at the Nencki Institute of Experimental Biology throughout the course of the study. After delivery to the Nencki Institute animal facility, mice rested for at least two weeks for acclimatization before starting the experiment. Experiments were approved by the First Local Ethics Committee in Warsaw (permit No. 491/2013 and 542/2018). Animal experimentation was performed in accordance with EU directive 2010/63/EU, and all experiments were undertaken in such a way as to minimize discomfort and the number of animals used in the study.
Mice were placed individually in separate cages, weighed, and randomly divided into two groups within each mouse strain: The treatment group and the control group. Before the study all mice were randomly given numerical equivalents, and all experimenters performing further analysis were not aware of the experimental group and referred solely to those numbers. Similarly, vials containing IM (treatment) or saline (control) were encrypted and assigned to particular mice, so the person performing injections and ear photographs was not aware of mice background. Lastly, the person quantifying each ear hole closure was not aware of the group. Numerical equivalents of each mice were only decrypted at the end of the study. Before study each animal was anesthetized with Isoflurane (Iso-Vet; Piramal, UK), ears were quickly disinfected with 70% isopropanol and circular punches 2 mm in diameter were made in the center of both ear pinnae using disposable biopsy punches (Integra Miltex; Integra Life Sciences, Princeton, NJ, USA). Due to some occasional self-inflicted injuries (tearing off one or both ear lobes) during the course of the study, the measurement data from destroyed lobes were excluded from comparisons of the next time points. […]
To monitor the progress of wound healing, ears were photographed on the day of the injury (day 0, before and right after pinna injury), and on days 7, 14, 21, 28, 35, and 42. […] Finally, the area of the wound hole was outlined by hand on digitized images as an overlay, and the hole areas in the ears were evaluated using computer-assisted image analysis (ImageJ Software). […] The final number of analyzed ears was 23 per group on day 42. […] The final number of analyzed ears on day 42 was 32 in the control group and 16 in the treatment group. […]

A further data set has as its system ASCs. Briefly: XTT proliferation assay. The data set is classed as cell-based, human. Particulars: 48 h, 1.0 and 10 µg/mL, serum-free DMEM, n=16. The procedure: (§1) XTT assay, which is widely used in the measurement of the effect of bioactive compounds (e.g., cytokines, growth factors, and peptides) on cell proliferation was used for the evaluation of IM effect on skin cells and ASCs proliferation. Cells were seeded at a density of 5000 cells per well into 96-well plates (BD, cat.no. 353872), in a medium supplemented with 10% of FBS, which after 24 h was exchanged for a serum-free DMEM medium containing appropriate concentrations of the IM peptide. IM solutions used in the experiments were prepared with double distilled water under sterile conditions. The cells were incubated with the peptide for 48 h or 72 h, then XTT reagent was added and the plates were incubated at 37 °C for 4 h in the presence of 5% CO2, following manufacturer’s instructions (Sigma-Aldrich, St. Louis, MO, USA). Plates were then read using a standard plate reader at OD 490 nm. Cell proliferation was normalized with respect to an untreated control (100%).

Another data set concerns HaCaT keratinocytes. The experiment in a line: XTT proliferation assay. The data set is classed as cell-based, human. The protocol: as §1
Background: Tetrazolium dyes change colour on reduction, which living cells bring about.

The test system of the next data set is 46BR.1N fibroblasts. The experiment in a line: XTT proliferation assay. The format is cell-based, human. The following applies: 48 h, 0.1–100 µg/mL, serum-free DMEM, n=16. The protocol: as §1

Take `CC(C)[C@H](NC(=O)[C@H](CCCCN)NC(=O)[C@H](CC(=O)O)NC(=O)[C@@H](N)CCCNC(=N)N)C(=O)N[C@@H](Cc1ccc(O)cc1)C(=O)N[C@@H](CCCNC(=N)N)C(=O)O` [IM, H-Arg-Asp-Lys-Val-Tyr-Arg-OH] (H-RDKVYR-OH): the “level of degranulated cells (basophil activation)” value in the data set on basophils is “below 5%”. For the same compound, in the data set on BALB/c mice (42 days after injury, hematoxylin and eosin), the “histology of the epidermis in healed ear pinna” value is on record as “signs of parakeratosis”. For the same compound, the “mean ear hole area” value in the data set on BALB/c mice (day 42 post-injury, 2 mm punch, s.c. 5.0 µg/g, 10 injections, mean ± SD, saline control 1.96 ± 0.48) was 1.69 ± 0.38 mm^2. For the same compound, the “wound closure (ear hole closure)” value in the data set on BALB/c mice (day 42 post-injury, s.c. 5.0 µg/g, 10 injections, mean ± SD, saline control 37.9% ± 14.2%) was 46.2% ± 12.2% and 46%. The “tissue repair in comparison to control” value in the data set with BALB/c mice (ear pinna injury, as summarised in the abstract) is 8%. The compound also displayed an increase in proliferation with ASCs of 10%. Besides, in the data set with HaCaT keratinocytes (48 h, 0.1 and 1 µg/mL, serum-free DMEM, XTT, n=16), the “increase in cell proliferation” value was 20–50%. Besides, in the data set on HaCaT keratinocytes (as summarised in the abstract, p < 0.05), the “increase in proliferation of keratinocytes (abstract)” value was 20–50%. In addition, the “increase in proliferation compared to the control” value in the data set on 46BR.1N fibroblasts is 20–40%.
